From ChEMBL document CHEMBL4699602, “Stapled and Xenopus Glucagon-Like Peptide 1 (GLP-1)-Based Dual GLP-1/Gastrin Receptor Agonists with Improved Metabolic Benefits in Rodent Models of Obesity and Diabetes” (J Med Chem, 2020)
Activity calls are given as the source filed them. The rule behind the calls is not given here. *1 amine or outer side, *2 acyl side, *3 side chain or, on linkers, in order; H or OH if unused. Where a SMILES comes first, the peptide text is derived from it. Bridges are numbered along the chain shown (N, C = ends). [ ]: non-standard residue; d: D form. X3 = O=C(O)CCCCCCCCCCCCCCCCC(=O)NC(CCC(=O)NCCOCCOCC(=O)NCCCCCCNC(=O)C(CCCCNC(=O)CCN1C(=O)CC([*:1])C1=O)NC(=O)CCN1C(=O)CC([*:2])C1=O)C(=O)O; sY = N[C@@H](Cc1ccc(OS(=O)(=O)O)cc1)C(=O)O; AEEA = NCCOCCOCC(=O)O; Aib = CC(C)(N)C(=O)O

Tests used:
Mus musculus = assay: Hypoglycemic activity in ICR mouse assessed as decrease in blood glucose concentration at 25 nmol/kg, ip dosed 15 mins before test and measured up to 120 mins by OGTT method; format: functional, organism-based
[1] = target: Glucagon-like peptide 1 receptor (Homo sapiens, UniProt P43220); assay: Agonist activity at human GLP-1R expressed in HEK293 cells assessed as stimulation of cAMP accumulation incubated for 20 mins; format: functional, cell-based
Glucagon-like peptide 1 receptor, sequence (P43220 whole entry): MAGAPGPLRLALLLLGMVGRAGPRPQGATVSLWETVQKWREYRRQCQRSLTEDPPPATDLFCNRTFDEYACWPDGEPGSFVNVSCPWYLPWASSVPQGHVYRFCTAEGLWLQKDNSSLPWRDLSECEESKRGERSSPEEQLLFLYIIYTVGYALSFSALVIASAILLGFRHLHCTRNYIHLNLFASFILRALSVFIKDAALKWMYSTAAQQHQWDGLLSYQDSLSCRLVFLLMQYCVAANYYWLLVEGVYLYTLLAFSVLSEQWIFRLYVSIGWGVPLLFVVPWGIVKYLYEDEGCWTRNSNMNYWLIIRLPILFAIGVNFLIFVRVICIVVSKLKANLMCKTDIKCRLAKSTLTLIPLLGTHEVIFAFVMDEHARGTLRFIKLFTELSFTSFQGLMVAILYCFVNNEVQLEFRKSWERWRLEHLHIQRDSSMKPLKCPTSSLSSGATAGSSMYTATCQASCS

[2] = target: T1, Gastrin/cholecystokinin type B receptor (Homo sapiens, UniProt P32239); assay: Agonist activity at human CCK-2R expressed in HEK293 cells assessed as stimulation of ERK phosphorylation incubated for 5 mins; format: cell-based
T1 sequence (P32239 whole entry): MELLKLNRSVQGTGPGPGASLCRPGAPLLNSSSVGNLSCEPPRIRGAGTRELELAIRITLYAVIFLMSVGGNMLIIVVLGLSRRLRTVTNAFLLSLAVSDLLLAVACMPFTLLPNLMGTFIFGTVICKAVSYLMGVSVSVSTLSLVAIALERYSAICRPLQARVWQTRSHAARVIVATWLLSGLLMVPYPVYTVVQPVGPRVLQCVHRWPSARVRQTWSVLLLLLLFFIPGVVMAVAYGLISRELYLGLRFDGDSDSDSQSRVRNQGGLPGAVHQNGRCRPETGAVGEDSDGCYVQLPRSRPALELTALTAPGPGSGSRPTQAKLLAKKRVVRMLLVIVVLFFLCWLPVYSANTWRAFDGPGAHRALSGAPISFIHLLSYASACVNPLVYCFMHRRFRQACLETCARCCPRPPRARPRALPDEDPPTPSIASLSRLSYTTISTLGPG

[3] = target: T2, Cholecystokinin receptor type A (Homo sapiens, UniProt P32238); assay: Agonist activity at human CCK-1R expressed in HEK293 cells assessed as stimulation of ERK phosphorylation incubated for 5 mins; format: cell-based
T2 sequence (P32238 whole entry): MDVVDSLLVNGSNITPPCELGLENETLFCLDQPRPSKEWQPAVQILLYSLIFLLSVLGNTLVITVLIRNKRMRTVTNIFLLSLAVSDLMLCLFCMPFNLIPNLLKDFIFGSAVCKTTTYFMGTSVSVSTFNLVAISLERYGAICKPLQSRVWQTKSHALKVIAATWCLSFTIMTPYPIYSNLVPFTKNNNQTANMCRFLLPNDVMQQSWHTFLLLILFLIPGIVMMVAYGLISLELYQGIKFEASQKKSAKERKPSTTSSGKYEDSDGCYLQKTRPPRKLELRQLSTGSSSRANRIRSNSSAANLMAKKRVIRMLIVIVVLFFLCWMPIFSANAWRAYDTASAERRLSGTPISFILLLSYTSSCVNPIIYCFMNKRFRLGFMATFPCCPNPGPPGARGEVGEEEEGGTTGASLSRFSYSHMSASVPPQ

| Compound | Activity (Mus musculus) | EC50 [1] [nM] | EC50 [2] [nM] | EC50 [3] [nM] |
| --- | --- | --- | --- | --- |
| H-H[Aib]EGTYTNDVTEYLEEEAAKCFIEWLICGKPSSGAPPSKKKKKK-NH2 (cysteines drawn unpaired) | Active | 0.036 | – | – |
| H-HGEGTYTNDVTEYLEEEAAKEFIEWLIKGKPSSGAPPSKKKKKK-NH2 | Active | 0.024 | – | – |
| CC[C@H](C)[C@H](NC(=O)[C@H](CC(C)C)NC(=O)[C@H](Cc1c[nH]c2ccccc12)NC(=O)[C@H](CCC(=O)O)NC(=O)[C@@H](NC(=O)[C@H](Cc1ccccc1)NC(=O)[C@H](CS)NC(=O)[C@H](CCCCN)NC(=O)[C@H](C)NC(=O)[C@H](C)NC(=O)[C@H](CCC(=O)O)NC(=O)[C@H](CCC(=O)O)NC(=O)[C@H](CCC(=O)O)NC(=O)[C@H](CC(C)C)NC(=O)[C@H](Cc1ccc(O)cc1)NC(=O)[C@H](CCC(=O)O)NC(=O)[C@@H](NC(=O)[C@@H](NC(=O)[C@H](CC(=O)O)NC(=O)[C@H](CC(N)=O)NC(=O)[C@@H](NC(=O)[C@H](Cc1ccc(O)cc1)NC(=O)[C@@H](NC(=O)CNC(=O)[C@H](CCC(=O)O)NC(=O)C(C)(C)NC(=O)[C@@H](N)Cc1c[nH]cn1)[C@@H](C)O)[C@@H](C)O)C(C)C)[C@@H](C)O)[C@@H](C)CC)C(=O)N[C@@H](CS)C(=O)NCC(=O)N[C@@H](CCCCN)C(N)=O (HELM PEPTIDE1{H.[Aib].E.G.T.Y.T.N.D.V.T.E.Y.L.E.E.E.A.A.K.C.F.I.E.W.L.I.C.G.K.[am]}$$$$V2.0) | Active | 0.083 | – | – |
| H-H[Aib]EGTYTNDVTEYCEEEAAKCFIEWLIKGKPSSGAPPPS[AEEA][AEEA][sY]GWMDF-NH2 (cysteines drawn unpaired) | – | 0.038 | 7.6 | > 1000 |
| H-H[Aib]EGTYTNDVTEYLEEEAAKCFIEWLICGKPSSGAPPPS[AEEA][AEEA][sY]GWMDF-NH2 (cysteines drawn unpaired) | – | 0.059 | 8.2 | > 1000 |
| H-H[Aib]EGTYTNDVTEYLEEEAAKCFIEWLICGKPSSGAPPPS[AEEA][AEEA]YGWLDF-NH2 (cysteines drawn unpaired) | – | 0.048 | 9.4 | > 1000 |
| CC[C@H](C)[C@@H]1NC(=O)[C@H](CC(C)C)NC(=O)[C@H](Cc2c[nH]c3ccccc23)NC(=O)[C@H](CCC(=O)O)NC(=O)[C@H]([C@@H](C)CC)NC(=O)[C@H](Cc2ccccc2)NC(=O)[C@@H](NC(=O)[C@H](CCCCN)NC(=O)[C@H](C)NC(=O)[C@H](C)NC(=O)[C@H](CCC(=O)O)NC(=O)[C@H](CCC(=O)O)NC(=O)[C@H](CCC(=O)O)NC(=O)[C@H](CC(C)C)NC(=O)[C@H](Cc2ccc(O)cc2)NC(=O)[C@H](CCC(=O)O)NC(=O)[C@@H](NC(=O)[C@@H](NC(=O)[C@H](CC(=O)O)NC(=O)[C@H](CC(N)=O)NC(=O)[C@@H](NC(=O)[C@H](Cc2ccc(O)cc2)NC(=O)[C@@H](NC(=O)CNC(=O)[C@H](CCC(=O)O)NC(=O)C(C)(C)NC(=O)[C@@H](N)Cc2c[nH]cn2)[C@@H](C)O)[C@@H](C)O)C(C)C)[C@@H](C)O)CSC2CC(=O)N(CCC(=O)NCCCCC(C(=O)NCCCCCCNC(=O)COCCOCCNC(=O)CCC(NC(=O)CCCCCCCCCCCCCCCCC(=O)O)C(=O)O)NC(=O)CCN3C(=O)CC(SC[C@@H](C(=O)NCC(=O)N[C@@H](CCCCN)C(=O)NCCOCCOCC(=O)NCCOCCOCC(=O)N[C@@H](Cc4ccc(O)cc4)C(=O)NCC(=O)N[C@@H](Cc4c[nH]c5ccccc45)C(=O)N[C@@H](CC(C)C)C(=O)N[C@@H](CC(=O)O)C(=O)N[C@@H](Cc4ccccc4)C(N)=O)NC1=O)C3=O)C2=O (stereo partly specified) (H-H[Aib]EGTYTNDVTEYLEEEAAKCFIEWLICGK[AEEA][AEEA]YGWLDF-NH2; linker 21-28 via X3) | – | 0.061 | 17.5 | > 1000 |
| H-H[Aib]EGTYTNDVTEYCEEEAAKCFIEWLIKGKPSSGAPPSKKKKKK-NH2 (cysteines drawn unpaired) | Active | 0.028 | – | – |
| CC[C@H](C)[C@H](NC(=O)[C@H](CC(C)C)NC(=O)[C@H](Cc1c[nH]c2ccccc12)NC(=O)[C@H](CCC(=O)O)NC(=O)[C@@H](NC(=O)[C@H](Cc1ccccc1)NC(=O)[C@H](CS)NC(=O)[C@H](CCCCN)NC(=O)[C@H](C)NC(=O)[C@H](C)NC(=O)[C@H](CCC(=O)O)NC(=O)[C@H](CCC(=O)O)NC(=O)[C@H](CCC(=O)O)NC(=O)[C@H](CS)NC(=O)[C@H](Cc1ccc(O)cc1)NC(=O)[C@H](CCC(=O)O)NC(=O)[C@@H](NC(=O)[C@@H](NC(=O)[C@H](CC(=O)O)NC(=O)[C@H](CC(N)=O)NC(=O)[C@@H](NC(=O)[C@H](Cc1ccc(O)cc1)NC(=O)[C@@H](NC(=O)CNC(=O)[C@H](CCC(=O)O)NC(=O)C(C)(C)NC(=O)[C@@H](N)Cc1c[nH]cn1)[C@@H](C)O)[C@@H](C)O)C(C)C)[C@@H](C)O)[C@@H](C)CC)C(=O)N[C@@H](CCCCN)C(=O)NCC(=O)N[C@@H](CCCCN)C(N)=O (HELM PEPTIDE1{H.[Aib].E.G.T.Y.T.N.D.V.T.E.Y.C.E.E.E.A.A.K.C.F.I.E.W.L.I.K.G.K.[am]}$$$$V2.0) | Active | 0.066 | – | – |
| H-H[Aib]EGTYTNDVTEYCEEEAAKCFIEWLIKGKPSSGAPPPS[AEEA][AEEA]YGWLDF-NH2 (cysteines drawn unpaired) | – | 0.04 | 8.3 | > 1000 |
| CC[C@H](C)[C@H](NC(=O)[C@H](CC(C)C)NC(=O)[C@H](Cc1c[nH]c2ccccc12)NC(=O)[C@H](CCC(=O)O)NC(=O)[C@@H](NC(=O)[C@H](Cc1ccccc1)NC(=O)[C@H](CS)NC(=O)[C@H](CCCCN)NC(=O)[C@H](C)NC(=O)[C@H](C)NC(=O)[C@H](CCC(=O)O)NC(=O)[C@H](CCC(=O)O)NC(=O)[C@H](CCC(=O)O)NC(=O)[C@H](CS)NC(=O)[C@H](Cc1ccc(O)cc1)NC(=O)[C@H](CCC(=O)O)NC(=O)[C@@H](NC(=O)[C@@H](NC(=O)[C@H](CC(=O)O)NC(=O)[C@H](CC(N)=O)NC(=O)[C@@H](NC(=O)[C@H](Cc1ccc(O)cc1)NC(=O)[C@@H](NC(=O)CNC(=O)[C@H](CCC(=O)O)NC(=O)C(C)(C)NC(=O)[C@@H](N)Cc1c[nH]cn1)[C@@H](C)O)[C@@H](C)O)C(C)C)[C@@H](C)O)[C@@H](C)CC)C(=O)N[C@@H](CCCCN)C(=O)NCC(=O)N[C@@H](CCCCN)C(=O)N1CCC[C@H]1C(=O)N[C@@H](CO)C(=O)N[C@@H](CO)C(=O)NCC(=O)N[C@@H](C)C(=O)N1CCC[C@H]1C(=O)N1CCC[C@H]1C(=O)N1CCC[C@H]1C(=O)N[C@@H](CO)C(N)=O (HELM PEPTIDE1{H.[Aib].E.G.T.Y.T.N.D.V.T.E.Y.C.E.E.E.A.A.K.C.F.I.E.W.L.I.K.G.K.P.S.S.G.A.P.P.P.S.[am]}$$$$V2.0) | Active | 0.042 | – | – |
| CC[C@H](C)[C@H](NC(=O)[C@H](CC(C)C)NC(=O)[C@H](Cc1c[nH]c2ccccc12)NC(=O)[C@H](CCC(=O)O)NC(=O)[C@@H](NC(=O)[C@H](Cc1ccccc1)NC(=O)[C@H](CS)NC(=O)[C@H](CCCCN)NC(=O)[C@H](C)NC(=O)[C@H](C)NC(=O)[C@H](CCC(=O)O)NC(=O)[C@H](CCC(=O)O)NC(=O)[C@H](CCC(=O)O)NC(=O)[C@H](CC(C)C)NC(=O)[C@H](Cc1ccc(O)cc1)NC(=O)[C@H](CCC(=O)O)NC(=O)[C@@H](NC(=O)[C@@H](NC(=O)[C@H](CC(=O)O)NC(=O)[C@H](CC(N)=O)NC(=O)[C@@H](NC(=O)[C@H](Cc1ccc(O)cc1)NC(=O)[C@@H](NC(=O)CNC(=O)[C@H](CCC(=O)O)NC(=O)C(C)(C)NC(=O)[C@@H](N)Cc1c[nH]cn1)[C@@H](C)O)[C@@H](C)O)C(C)C)[C@@H](C)O)[C@@H](C)CC)C(=O)N[C@@H](CS)C(=O)NCC(=O)N[C@@H](CCCCN)C(=O)N1CCC[C@H]1C(=O)N[C@@H](CO)C(=O)N[C@@H](CO)C(=O)NCC(=O)N[C@@H](C)C(=O)N1CCC[C@H]1C(=O)N1CCC[C@H]1C(=O)N1CCC[C@H]1C(=O)N[C@@H](CO)C(N)=O (HELM PEPTIDE1{H.[Aib].E.G.T.Y.T.N.D.V.T.E.Y.L.E.E.E.A.A.K.C.F.I.E.W.L.I.C.G.K.P.S.S.G.A.P.P.P.S.[am]}$$$$V2.0) | Active | 0.052 | – | – |
| H-HGEGTYTNDVTEYLEEEAAKEFIEWLIKGK-NH2 | Active | 0.048 | – | – |
